Measured values published in publication PMC4992440 (ACS chemical biology, 2016).
Where two headings read alike, the source gives them in different places.

Columns and labels:
[1] = test system: IL-10 production in Zymosan A-stimulated BMDCs; test: IL-10 production by Zymosan A-stimulated BMDCs; type: cell-based, mouse; conditions: read-out: IL-10 EC50, mean ± SD from ≥ 2 independent experiments
[2] = Mouse liver microsome stability; conditions: mouse liver microsomes; 1 independent experiment
BMDCs = test: Cellular cytotoxicity in Zymosan A-stimulated BMDCs; type: cell-based, mouse
[3] = test system: p-HDAC5 (Ser259) in BMDMs; test: HDAC5 Ser259 phosphorylation in LPS-stimulated BMDMs; type: cell-based, mouse; conditions: 1 μM, 6 hr pre-incubation, LPS 30 min
[4] = Serum / plasma protein binding; type: in vitro ADME, mouse
[5] = test system: TNFα, IL-6, IL-12p40, IL-1β in BMDCs; test: Inflammatory cytokine production by Zymosan A-stimulated BMDCs; type: cell-based, mouse; conditions: 1 μM 24 hr, Zymosan A 18 hr
PBS solubility = type: physicochemical
[6] = test system: LPS-stimulated C57BL/6 mice; type: in vivo; conditions: mouse
C57BL/6 mice = test: Daily dosing for 1 week in mice: weight, serum triglycerides, adiponectin; type: in vivo, mouse; conditions: wild-type mice, daily for 1 week
[7] = mouse, microsomes
[8] = test system: Il10 and Nurr77 transcripts in BMDCs; test: CREB target gene transcripts in LPS-stimulated BMDCs; type: cell-based, mouse; conditions: 1 μM, 24 hr pre-treatment
[9] = Pharmacokinetics after IP administration in mice; type: in vivo; conditions: mouse

SMILES: COc1ccc(N2C(=O)N(c3c(C)cccc3Cl)Cc3cnc(Nc4ccc(N5CCN(C)CC5)cc4)nc32)nc1 [Compound 3]
- EC50 [1]: 11 ± 1 nM
- MLM t1/2 [2]: 0.45 h
- toxicity in BMDCs (in words) (BMDCs): significantly elevated toxicity

SMILES: COc1ccc(N(C(=O)Nc2c(C)cccc2C)c2cc(Nc3ccc(N4CCN(C)CC4)cc3)ncn2)c(OC)c1 [Compound 1, reference compound]
- EC50 [1]: 220 ± 90 nM
- MLM t1/2 [2]: 0.183 h
- LPS stimulated phosphorylation of HDAC5 at Ser259 [3]: reduces
- serum bound [4]: > 99%

SMILES: COc1ccc(N2C(=O)N(c3c(C)cccc3Cl)Cc3cnc(Nc4ccc(C5CCN(C)CC5)cc4OC)nc32)nc1 [Compound 5]
- IL-1β release [5]: only modestly enhanced
- IL-6 production [5]: suppressed
- IL-12p40 production [5]: suppressed
- TNFα production [5]: suppressed
- PBS solubility (PBS solubility): 428 ± 11 µM
- EC50 [1]: 460 ± 110 nM
- LPS-induced increase in Il6 mRNA in colon ([6]; IP 20 mg/Kg): not affected
- serum IL-6 levels ([6]; IP 20 mg/Kg, LPS): moderately decreased
- increase of serum IL-10 levels ([6]; IP 20 mg/Kg, LPS 1 hour): > 2 fold
- Tnf transcript in colon ([6]; IP 20 mg/Kg, throughout the experiment): reduced
- phosphorylation of HDAC5 at Ser259 in total splenic leukocytes ([6]; IP 5 – 50 mg/Kg, 15 min before LPS 1 hour): dose dependently decreased
- abundance of TNFα in serum ([6]; IP, beginning at 5 mg/Kg, LPS 1 hour): dose-dependently reduced
- phosphorylation of HDAC5 at Ser259 in total splenic leukocytes, immunoblotting ([6]; IP, beginning at the 20 mg/Kg dose): below the limit of detection
- tolerability of daily injections (C57BL/6 mice): well tolerated
- MLM t1/2 [7]: >2 h
- Il10 transcript level [8]: increased
- Nurr77 transcript level [8]: increased
- LPS stimulated phosphorylation of HDAC5 at Ser259 [3]: reduced
- changes in viability, activity or grooming ([9]; IP 20 mg/Kg, 24 hour treatment period): no obvious changes
- clearance t1/2 ([9]; IP, 20 mg/Kg, serum): > 7 h
- concentrations at which non-toxic (BMDCs): ≤ 10 µM
